Source: the supplement of paper PMC11061612

Tests used:
Assay in all cases: Bliss excess, mean over the matrix (fraction); higher = more synergy
HuO9 (Osteosarcoma) = test system: HuO9 (Osteosarcoma)
In short: (§1)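 Bliss excess equals the observed combination effect minus the expected value EA + EB − EA·EB, where EA and EB are the effects of each agent alone. Combination Emax is the second-highest inhibition within the matrix. Inhibition was scaled from CellTiter-Glo 2.0 luminescence, with 0 set by vehicle wells and 1 by blank wells, after 72 hours of two-drug dosing of cells plated in 1536-well plates.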

[1] = test system: TYK-nu (Ovarian Carcinoma)
In short: as §1

[2] = test system: D-283MED (Other Solid Carcinomas)
In short: as §1

[3] = test system: MES-SA (Other Solid Carcinomas)
In short: as §1

[4] = test system: SNG-M (Endometrial Carcinoma)
In short: as §1

[5] = test system: SKN-3 (Head and Neck Carcinoma)
In short: as §1

[6] = test system: P31-FUJ (Acute Myeloid Leukemia)
In short: as §1

[7] = test system: HLE (Hepatocellular Carcinoma)
In short: as §1

[8] = test system: SK-LMS-1 (Other Solid Carcinomas)
In short: as §1

H4 (Low Grade Glioma) = test system: H4 (Low Grade Glioma)
In short: as §1

Saos-2 (Osteosarcoma) = test system: Saos-2 (Osteosarcoma)
In short: as §1

HCC38 (Breast Carcinoma) = test system: HCC38 (Breast Carcinoma)
In short: as §1

MSTO-211H (Mesothelioma) = test system: MSTO-211H (Mesothelioma)
In short: as §1

D-392MG (Glioblastoma) = test system: D-392MG (Glioblastoma)
In short: as §1

CS1 (Chondrosarcoma) = test system: CS1 (Chondrosarcoma)
In short: as §1

MCF7 (Breast Carcinoma) = test system: MCF7 (Breast Carcinoma)
In short: as §1

[9] = test system: HCC-827 (Lung Adenocarcinoma)
In short: as §1

[10] = test system: SW48 (Colorectal Carcinoma)
In short: as §1

[11] = test system: HCC1143 (Breast Carcinoma)
In short: as §1

[12] = test system: SW948 (Colorectal Carcinoma)
In short: as §1

Row | SMILES | Bliss excess (HuO9 (Osteosarcoma)) | Bliss excess [1] | Bliss excess [2] | Bliss excess [3] | Bliss excess [4] | Bliss excess [5] | Bliss excess [6] | Bliss excess [7] | Bliss excess [8] | Bliss excess (H4 (Low Grade Glioma)) | Bliss excess (Saos-2 (Osteosarcoma)) | Bliss excess (HCC38 (Breast Carcinoma)) | Bliss excess (MSTO-211H (Mesothelioma)) | Bliss excess (D-392MG (Glioblastoma)) | Bliss excess (CS1 (Chondrosarcoma)) | Bliss excess (MCF7 (Breast Carcinoma)) | Bliss excess [9] | Bliss excess [10] | Bliss excess [11] | Bliss excess [12]
1 | CN(C)CCCOc1ccc(-c2ccc3ncc4c(c3c2)n(C2CCOCC2)c(=O)n4C)cn1 [AZD0156] + C=CCn1c(=O)c2cnc(Nc3ccc(N4CCN(C)CC4)cc3)nc2n1-c1cccc(C(C)(C)O)n1 [AZD1775] (first compound max 1 µM, partner max 1 µM) | -0.0017 | -0.0836 | -0.0408 | 0.0372 | -0.0562 | -0.0276 | 0.0046 | -0.026 | -0.0203 | -0.0516 | -0.0379 | -0.0963 | 0.0099 | -0.0461 | -0.0392 | -0.0338 | 0.0075 | -0.0172 | -0.0802 | 
2 | CN(C)CCCOc1ccc(-c2ccc3ncc4c(c3c2)n(C2CCOCC2)c(=O)n4C)cn1 [AZD0156] + CCN(CCO)CCCOc1ccc2c(Nc3cc(CC(=O)Nc4cccc(F)c4)[nH]n3)ncnc2c1 [AZD2811] (first compound max 1 µM, 7x7, partner max 1 µM) | -0.009 | -0.0179 | 0.02 | 0.0836 | -0.0218 | -0.0239 | -0.0314 | 0.0189 | 0.0032 | -0.0077 | 0.0088 | -0.0451 | -0.0098 | -0.0556 | -0.0074 | -0.0114 | -0.0088 | -0.0164 | 0.0372 | 
3 | CN(C)CCCOc1ccc(-c2ccc3ncc4c(c3c2)n(C2CCOCC2)c(=O)n4C)cn1 [AZD0156] + C[C@@H]1COCCN1C2=NC(=NC(=C2)C3(CC3)[S@](=N)(=O)C)C4=C5C=CNC5=NC=C4 [AZD6738] (first compound max 1 µM, 7x7, partner max 10 µM) | 0.0236 | -0.0143 | 0.0357 | 0.0509 | 0.0138 | 0.0368 | -0.0462 | 0.0261 | 0.0122 | -0.0404 | -0.0133 | -0.0689 | 0.0418 | -0.0549 | 0.0088 | 0.0578 | -0.003 | -0.0043 | 0.0323 | 
4 | C=CCn1c(=O)c2cnc(Nc3ccc(N4CCN(C)CC4)cc3)nc2n1-c1cccc(C(C)(C)O)n1 [AZD1775] + C1CN(CCC1(C(=O)N[C@@H](CCO)C2=CC=C(C=C2)Cl)N)C3=NC=NC4=C3C=CN4 [Capivasertib] (first compound max 3 µM, partner max 3 µM) | -0.0495 | -0.0475 | -0.0189 |  | -0.0575 | -0.0344 | -0.0276 | -0.0734 | -0.087 | -0.0472 | -0.0459 | -0.105 | -0.0797 | 0.0315 | -0.0394 | 0.0075 | 0.0073 |  | -0.05 | -0.003
5 | C=CCn1c(=O)c2cnc(Nc3ccc(N4CCN(C)CC4)cc3)nc2n1-c1cccc(C(C)(C)O)n1 [AZD1775] + C[C@@H]1COCCN1C2=NC(=NC(=C2)C3(CC3)[S@](=N)(=O)C)C4=C5C=CNC5=NC=C4 [AZD6738] (first compound max 1 µM, partner max 10 µM) | 0.0672 | -0.0711 | 0.0327 | 0.01 | -0.0128 | 0.0234 | -0.008 | -0.0148 | 0.0039 | -0.0949 | 0.0071 | -0.0805 | 0.0418 | -0.04 | 0.0087 | 0.0332 | -0.0286 | 0.0642 | 0.0108 | 
6 | C=CCn1c(=O)c2cnc(Nc3ccc(N4CCN(C)CC4)cc3)nc2n1-c1cccc(C(C)(C)O)n1 [AZD1775] + O=C(c1cc(Cc2n[nH]c(=O)c3ccccc23)ccc1F)N1CCN(C(=O)C2CC2)CC1 [Olaparib] (first compound max 1 µM, partner max 10 µM) | 0.0102 | -0.108 | 0.0079 | -0.0694 | -0.0105 | -0.0512 | -0.0809 | -0.0567 | 0.0065 | -0.12 | -0.0422 | -0.068 | -0.0203 | -0.0369 | 0.0057 | 0.003 | -0.042 | -0.0398 | -0.0675 | 
7 | CCN(CCO)CCCOc1ccc2c(Nc3cc(CC(=O)Nc4cccc(F)c4)[nH]n3)ncnc2c1 [AZD2811] + C=CCn1c(=O)c2cnc(Nc3ccc(N4CCN(C)CC4)cc3)nc2n1-c1cccc(C(C)(C)O)n1 [AZD1775] (first compound max 1 µM, partner max 1 µM) | 0.0204 | -0.0586 | 0.0452 | 0.0752 | -0.0356 | -0.0154 | -0.0615 | 0.09 | 0.0502 | -0.0637 | 0.029 | -0.0672 | 0.0387 | -0.0945 | 0.0264 | 0.0165 | 0.0272 | -0.013 | 0.0147 | 
8 | CCN(CCO)CCCOc1ccc2c(Nc3cc(CC(=O)Nc4cccc(F)c4)[nH]n3)ncnc2c1 [AZD2811] + C[C@@H]1COCCN1C2=NC(=NC(=C2)C3(CC3)[S@](=N)(=O)C)C4=C5C=CNC5=NC=C4 [AZD6738] (first compound max 1 µM, 7x7, partner max 10 µM) | -0.0491 | -0.0244 | -0.0541 | -0.0328 | -0.0273 | -0.0167 | -0.0332 | 0.0179 | -0.0249 | -0.0536 | -0.0218 | -0.0372 | -0.0279 | -0.0537 | -0.0842 | -0.0565 | -0.0856 | -0.0228 | -0.0291 | 
9 | CCN(CCO)CCCOc1ccc2c(Nc3cc(CC(=O)Nc4cccc(F)c4)[nH]n3)ncnc2c1 [AZD2811] + O=C(c1cc(Cc2n[nH]c(=O)c3ccccc23)ccc1F)N1CCN(C(=O)C2CC2)CC1 [Olaparib] (first compound max 1 µM, 7x7, partner max 10 µM) | 0.0215 | -0.0152 | -0.0234 | 0.0754 | -0.018 | -0.0236 | -0.0895 | 0.004 | 0.0076 | -0.0046 | 0.0395 | -0.003 | 0.0178 | -0.0695 | -0.0515 | -0.0023 | -0.0162 | 0.0145 | 0.015 | 
10 | Cc1c2c(nn1C)CSCc1cc(n(C)n1)CSc1cc(c3ccccc3c1)OCCCc1c(C(=O)O)n(C)c3c-2c(Cl)ccc13 [AZD5991] + C[C@@H]1COCCN1C2=NC(=NC(=C2)C3(CC3)[S@](=N)(=O)C)C4=C5C=CNC5=NC=C4 [AZD6738] (first compound max 1 µM, 7x7, partner max 10 µM) | 0.0259 | -0.0265 | -0.0109 | 0.0653 | 0.0516 | 0.0678 | -0.0033 | 0.0075 | -0.0471 | 0.0274 | -0.0135 | 0.0528 | 0.0032 | -0.0053 | 0.0029 | 0.0286 |  | -0.0259 | 0.0032 | 0.0387
11 | C[C@@H]1COCCN1c1cc(C2([S@](C)(=N)=O)CC2)nc(-c2ccnc3[nH]ccc23)n1 [AZD6738] + O=C(c1cc(Cc2n[nH]c(=O)c3ccccc23)ccc1F)N1CCN(C(=O)C2CC2)CC1 [Olaparib] (first compound max 10 µM, 7x7, partner max 10 µM) | -0.0166 | -0.0674 | -0.0148 | -0.0519 | 0.0294 | -0.0217 | -0.0848 | -0.0562 | 0.0027 | 0.0238 | 0.0118 | 0.0122 | -0.0082 | -0.0067 | 0.0318 | 0.0135 | -0.0086 | -0.0367 | -0.0284 | 
12 | Cc1cc2ncnn2cc1Nc1ncc2c(n1)n(C1CCOCC1)c(=O)n2C [AZD7648] + O=C(c1cc(Cc2n[nH]c(=O)c3ccccc23)ccc1F)N1CCN(C(=O)C2CC2)CC1 [Olaparib] (first compound max 10 µM, 7x7, partner max 10 µM) | 0.0105 | -0.0819 | -0.0398 | 0.06 | -0.0471 | -0.0199 | -0.0511 | -0.036 | -0.0295 | 0.0404 | -0.0322 | -0.0481 | -0.0143 | -0.0456 | -0.0193 | -0.0625 | -0.028 | -0.031 | -0.0401 | 
13 | CS(=O)(=O)CCNCc1ccc(-c2ccc3ncnc(Nc4ccc(OCc5cccc(F)c5)c(Cl)c4)c3c2)o1 [Lapatinib] + Cn1cnc2c(F)c(Nc3ccc(Br)cc3Cl)c(C(=O)NOCCO)cc21 [Selumetinib] (first compound max 10 µM, 7x7, partner max 10 µM) |  |  | 0.0163 |  | -0.071 |  | -0.0118 | 0.0068 | 0.0047 | -0.0159 | 0.0251 | -0.0168 | -0.0401 | -0.0383 | -0.0337 |  |  | 0.146 |  | -0.0086
14 | CS(=O)(=O)CCNCc1ccc(-c2ccc3ncnc(Nc4ccc(OCc5cccc(F)c5)c(Cl)c4)c3c2)o1 [Lapatinib] + NC1(c2ccc(-c3nc4ccn5c(=O)[nH]nc5c4cc3-c3ccccc3)cc2)CCC1 [MK-2206] (first compound max 10 µM, 7x7, partner max 10 µM) | 0.0257 | -0.0165 | 0.0164 |  | 0.0254 | -0.0508 | -0.062 | -0.0136 | 0.0031 | 0.0054 | -0.0026 | 0.037 | -0.0466 | -0.0411 | -0.0142 | -0.0702 |  | 0.0412 | -0.0213 | 0.049
15 | CCc1c2c(nc3ccc(O)cc13)-c1cc3c(c(=O)n1C2)COC(=O)[C@]3(O)CC [SN-38] + O=C(c1cc(Cc2n[nH]c(=O)c3ccccc23)ccc1F)N1CCN(C(=O)C2CC2)CC1 [Olaparib] (first compound max 0.3 µM, 7x7, partner max 10 µM) | 0.0687 | -0.0067 | 0.0174 |  | 0.0565 |  | 0.0648 | 0.0335 | 0.0057 | 0.0958 | 0.0247 | 0.0331 | 0.0376 | 0.0711 | 0.0141 | 0.0115 | 0.052 | 0.028 |  | 0.0993
16 | Cc1nc(-c2cn3c(n2)-c2ccc(-c4cnn(C(C)(C)C(N)=O)c4)cc2OCC3)n(C(C)C)n1 [Taselisib] + O=C(Nc1ccc2[nH]nc(-c3ccncc3)c2c1)[C@@H]1CCN(CC(=O)N2CCN(c3ccc(-c4ncccn4)cc3)CC2)C1 [SCH772984] (first compound max 10 µM, 7x7, partner max 5 µM) |  |  | 0.061 |  | -0.0211 |  | 0.0477 | 0.0366 | 0.106 | -0.0007 | 0.0665 | 0.0325 | 0.131 | 0.0272 | 0.0942 |  |  | 0.203 |  | 0.032
